Results on two molecules are retold here after patent publication US20210187105A1, “COMBINATION THERAPY OF ANTI-MIF ANTIBODIES AND GLUCOCORTICOIDS” (Baxalta Incorporated, priority 2012, published 2021).

The test system of assay [1] is immune mediated-nephrotoxic nephritis (NTN) in Wistar Kyoto (WKY) rats. Kind of assay: Animal model for crescentic glomerulonephritis (nephrotoxic nephritis). Format: in vivo, rat. The text has this: This model is recognized in the art as predictable to show the effects of the invention. It is suitable to show the effects of the combination therapy over the complete range of diseases which can be subsumed under the above definition of “MIF related diseases” particularly, this model is suitable for the following diseases: Lupus nephritis, anti-GBM nephritis, ANCA nephritis, IgA nephropathy. Dexamethasone is recognized in the art as predictive for a respective glucocorticoid in the treatment of a human. […] This model has a rapid onset of disease with macrophage infiltration, fibrin deposition and tissue destruction 12. NTN is induced in male WKY rats by single intravenous injection of 0.1 ml rabbit anti-rat glomerular basement membrane serum (day 0). mAb and Dexamethasone is injected intraperitoneally at time points and dosages described below. 24 hour urine samples are collected using metabolic cages before induction of glomerulonephritis and at various time intervals after induction of nephritis for quantification of proteinuria. Sections of renal tissues are frozen for subsequent analysis by immunohistology. Morphology of renal injury is assessed in haematoxylin/eosin (H&E) and periodic acid-Schiff (PAS) stained renal tissue sections. Macrophage is detected by immunoperoxidase technique and using the monoclonal mouse antibody ED1 (Serotec, U C). The animal model was described in detail (Tam F W K, Smith J, Morel D, Karkar A M, Thompson E M, Cook H T, Pusey C D: Development of scarring and renal failure in a rat model of crescentic glomerulonephritis. Nephrol Dial Transplant 14:1658-1666, 1999).

Assay [2] deals with Contact hypersensitivity (CHS) response to 2,4-dinitrofluorobenzene (DNFB) in C57BL/6 mice. Nature of the assay: Contact hypersensitivity (CHS) response to DNFB, ear swelling. The format is in vivo, mouse. The note with it: topical. The procedure:
The Contact hypersensitivity (CHS) response to 2,4-dinitrofluorobenzene (DNFB) was determined using a modification of an earlier model described (see Ludwig, et al., 2010, Am J Pathol 176, 1339-1345). C57BL/6 mice were sensitized by treating the shaved mouse back skin with 75 μl of DNFB (Sigma, St. Louis, Mo.) solution (0.5% in acetone/olive oil, 4/1). […] the right ears of the mice were challenged with 20 μl 0.3% DNFB to cause a local inflammatory response. The vehicle (acetone/olive) oil was applied to the left ears as a control. The swelling response to DNFB, specified as the difference between the right and left ears, was measured 24 h after challenge using a micrometer (Mitutoyo Co., Tokyo, Japan). 8 mice were used per group.

The mark [3] stands for this setting: single intraperitoneal injection of 0.25 mg/kg, 4 days after induction, day 8.

As to `C[C@@H]1C[C@H]2[C@@H]3CCC4=CC(=O)C=C[C@]4(C)[C@@]3(F)[C@@H](O)C[C@]2(C)[C@@]1(O)C(=O)CO` [Dexamethasone, reference compound], the suboptimal dexamethasone concentration in assay [1] (dose finding) was 0.025 mg/kg. In addition, in assay [1] (setting [3]), the “reduction of crescent counts” value was “approximately 25%” and the “reduction of glomerular macrophage infiltration” value was “approximately 53%”. The reduction of proteinuria result in assay [1] (single intraperitoneal injection of 0.25 mg/kg, 4 days after induction, urine day 7 to day 8) is on record as “approximately 50%”.

With `C[C@]12CCC(=O)C=C1CC[C@@H]1[C@@H]2[C@@H](O)C[C@@]2(C)[C@H]1CC[C@]2(O)C(=O)CO` [hydrocortisone], the “anti-inflammatory effects, ear thickness” value in assay [2] (1% in DAC base cream ointment, without antibody) is listed as “sub-optimal anti-inflammatory effects”. In addition, the ear swelling result in assay [2] (suboptimal dose 1% in DAC base cream, in combination with 10 mg/kg isotype control antibody) is given as “did not reduce ear swelling”.
